We go through 63 compounds from a melting point compilation (Tetko et al.; mined from patent text by program, amines drawn as free bases though some values may be those of a salt).

By melting point is commonly meant the temperature of the solid-liquid transition.

SMILES strings stand for the structures.

`C=CCOc1cc2c(cc1C(C)=O)CCCC2` registered a melting point of 62 to 63 °C.

Turning to `COc1ccc(CSc2cnccc2C#N)cc1`, the melting point was in the range of 80 to 81 °C. As to `Cc1cccc(-c2nc(-c3cccc(C)c3)nc(-c3cccc(C)c3)n2)c1`, the melting point was 151 to 152 °C. With `COC1(c2cccc(OCc3ccc(-n4ccnc4C)cc3)c2)CCOCC1`, the melting point was in the range of 136 to 137 °C.

In the case of `Cc1nc2cc(C(c3cccc(Cl)c3)n3ccnc3)ccc2[nH]1` (stereo not drawn), the melting point stood at 117 °C. In the case of `Sc1nccn1-c1nccs1` it was 211 to 213 °C; in that of `O=C(c1ccccc1)P1(=O)Oc2ccccc2-c2ccccc21` (stereo not drawn), 134 to 135 °C; in that of `O=C(CCl)NCC1CCCCC1`, 85 to 86 °C. In turn, `CCCCCCCCCCCCCC(CP(c1ccccc1)c1ccccc1)C(C)CP(c1ccccc1)c1ccccc1` (stereo not drawn) came in with a melting point of 105 to 106 °C. In the case of `COCCC1CCCCCc2c1oc(=O)c(C(c1ccccc1)C1CC1)c2O` (stereo not drawn) it was 78 to 80 °C; in that of `Fc1ccc(C2NCCc3c2[nH]c2ccccc32)cc1F` (stereo not drawn), 151 °C. In the case of `O=[N+]([O-])c1ccccc1N1CCN(c2ccccc2)CCN1` it was 119 to 121 °C; in that of `CC12C=CC(=O)C=C1C(Br)CC1C2CCC2(C)C(=O)CCC12` (stereo not drawn), 188 to 190 °C; in that of `CCc1cc2c(s1)-n1c(C3CCCCC3)nnc1C(NC(=O)Nc1ccc(OC)cc1)N=C2c1ccccc1Cl` (stereo not drawn), 268 to 269 °C. In the case of `O=c1c2cc(F)c(F)cc2n(-c2ccccc2F)c(=O)n1OCc1ccccc1` it was 204 to 206 °C.

The compound `Cn1c(C(F)(F)F)cc(=O)n(-c2cc(S)c(Cl)cc2F)c1=O` returned a melting point of 132 °C. In the case of `CCOC(=O)C1(C(=O)NCc2ccccc2)CC(=O)N(Cc2ccccc2)C1` (stereo not drawn) it was 63 to 65 °C; in that of `CC(=O)OC1CCC2(C)C(CCC3=C4C(=O)CC(C(C)CCCC(F)(C(F)(F)F)C(F)(F)F)C4(C)CCC32)C1` (stereo not drawn), 187 to 188 °C. `O=c1[nH]c2ncc(-c3ccc(-c4n[nH]c(C(F)(F)F)n4)cc3)nc2n1CC1CCCCC1` showed a melting point of 303 to 305 °C. In the case of `COc1ccc(CS(=O)(=O)c2cc3ccc(O)cc3oc2=O)cc1` it was 231 to 232 °C; in that of `CC(C)(C)c1ccc(S(=O)(=O)n2c(CCC(=O)O)cc3cc(Cl)ccc32)cc1`, 169 to 171 °C. In the case of `Oc1cc(-c2cccc(C(F)(F)F)c2)nc2ccnn12` it was 305 to 310 °C; in that of `CC(=NO)C(C)(C)NCC(O)CNC(C)(C)C(CCn1ccnc1[N+](=O)[O-])=NO` (stereo not drawn), 62 to 64 °C. In the case of `CC1CCc2c(-n3ccnc3)c(F)cc3c(=O)c(C(=O)O)cn1c23` (stereo not drawn) it was greater than 250 °C; in that of `Fc1ccc(C=Nc2c3c(nc4ccccc24)CCCC3)cc1`, 161 to 163 °C. Regarding `CN1CCN(C(=O)OC2c3ccccc3C(=O)N2c2ccc3cccnc3n2)CC1` (stereo not drawn), the melting point was 183 °C. In the case of `C=CCSc1cc(C(=O)O)cc(S(N)(=O)=O)c1-c1ccccc1` it was 78 to 81 °C; in that of `O=S1(=O)c2cccc3cccc(c23)N1CCN1CCC(Cc2cc3cc(F)ccc3[nH]2)CC1`, 154 °C; in that of `COc1cc(OC)c2cnoc2c1`, 100 to 101 °C. For `O=C1c2ccccc2-n2cnc(-c3noc(CCl)n3)c2[C@@H]2CCCN12`, the melting point was 205 to 206 °C. With `Cn1nc(-c2ccc(F)cc2)c(-c2ccncc2)c1C=CCc1ccccc1`, the melting point was in the range of 136 to 137 °C. In the case of `OCc1ccc(O)c(CO)c1CNCCCCCCOCC1CCCCC1` it was 72 to 74 °C. In the case of `C[C@@H](c1ccccc1)n1c(O)nc2c(N)nc3cccnc3c21` it was 241 to 243 °C. In the case of `CCOC(=O)NNC(=O)NC1c2ccccc2Oc2ccccc21` it was 188 to 191 °C. `O=C(O)c1cn(C2COC2)c2c(F)c(F)c(F)c(O)c2c1=O` returned a melting point of 242 to 244 °C. In the case of `Cc1cc(Cc2cc(C(C)(C)CC(C)(C)C)cc(-n3nc4ccccc4n3)c2O)c(O)c(C(C)(C)C)c1` it was 148 °C; in that of `CCOC(=O)C1=C(C)Nc2nnnn2C1c1cccc([N+](=O)[O-])c1` (stereo not drawn), 210 to 212 °C; in that of `O=c1nc(NCc2ccccc2)sc2c([N+](=O)[O-])cc(C(F)(F)F)cc12`, 192 to 194 °C. In the case of `C=CCSC1(C(F)(F)F)CN(CC)C(=O)Nc2ccc(Cl)cc21` (stereo not drawn) it was 138 to 142 °C. In the case of `COC(=O)c1ncsc1S` it was 100 °C; in that of `c1ccc2c(c1)CCc1cc(C3CO3)ccc1-2` (stereo not drawn), 65 to 66 °C. The compound `COC(=O)c1cc(NC(=O)OC(C)(C)C)c(NC(=O)CC(=O)c2cccc(C#N)c2)cc1I` had a melting point of 162 to 166 °C. In the case of `O=C(O)CS(=O)(=O)Nc1c(F)cc(F)cc1F` it was 126 to 127 °C. In the case of `CCOC(=O)CCc1ccccc1CNC(=O)C1Cc2ccccc2N1S(=O)(=O)c1ccc(-c2cccc(C(F)(F)F)c2)cc1` (stereo not drawn) it was 48 °C; in that of `Cc1ccc(Oc2ccccc2-n2cnnn2)c(O)c1`, 157 to 160 °C. In the case of `CSCCCNC(=O)N(O)C[C@@H]1C[C@H]1c1ccccc1` (relative stereo) it was 103 to 104 °C. `CC(O)CN(C)c1nnc2c3ccc(Cl)cc3c(-c3ccccc3)nn12` (stereo not drawn): the melting point is 236 to 238 °C.

With `Cc1nnc(-c2nn(-c3cccc(C(F)(F)F)c3)ccc2=O)n1-c1ccccc1`, the melting point lay in the range of 191 to 192 °C. In the case of `Cc1ccc(C(=O)Nc2ccc(-c3ccccc3)c(C(F)(F)F)c2)cc1Nc1nccc(-c2cccnc2)n1` it was 172 to 174 °C; in that of `NC(=O)c1cc(-c2ccc(F)cc2)ccc1O`, 206 to 207 °C. In the case of `CN(C)C(=O)N(C)c1nnc(C(C)(C)C#N)s1` it was 92 to 94 °C; in that of `CCN(C)C(=O)c1cnn(-c2ccc(Cl)cc2)c1-c1ccc(OC)c(OC)c1`, 110 °C; in that of `Clc1cccc(C(c2ccnc3ccccc23)n2cnnc2)c1` (stereo not drawn), 203 °C. In the case of `C#CCOC(=O)C(C#N)=C(SC)SC` it was 77 to 79 °C. Turning to `O=C(COc1ccccc1)NC1C(=O)NC1SCC(=O)C1CCCS1` (mixture of isomers), the melting point was determined as 123 °C.

In turn, `CC1c2ccccc2CN1NC(=O)c1ccc(Cl)c(S(N)(=O)=O)c1` (stereo not drawn) returned a melting point of 208 to 210 °C. In the case of `CC1(C)CC(NC(=O)CCC(C)(c2ccc(O)c(C(C)(C)C)c2)c2ccc(O)c(C(C)(C)C)c2)CC(C)(C)N1` it was 110 °C; in that of `NC(=O)N(O)CCNC(=O)c1ccccc1Oc1ccccc1`, 182 to 185 °C.

Regarding `CCCc1oc(C)cc1C(=O)O`, the melting point is 91 to 102 °C. In the case of `CC(=C(c1ccc(N(C)C)cc1)c1ccc(N(C)C)cc1)P(C(C)(C)C)C(C)(C)C` it was 133 to 135 °C. As to `O=c1nc(-c2cccc(C(F)(F)F)c2)sc2ccccc12`, the melting point worked out at 115 °C. In the case of `CC=CC=CCOC(=O)C1=C(C)NC(C)=C(C(=O)OC(C)(C)C)C1c1cccc([N+](=O)[O-])c1` (stereo not drawn) it was 152 to 154 °C. In the case of `N#CCNC(=O)C(Cl)c1ccccc1` (stereo not drawn) it was 73 to 74 °C.
